Source: PMC2637447 (Neuropharmacology, 2008)

Experiments:
GluK1 = GluK1 (Homo sapiens, UniProt P39086); assay: Ca2+ fluorescence assay, antagonism of L-glutamate; format: cell-based
GluK3 = GluK3 (Homo sapiens, UniProt Q13003); assay: whole-cell voltage clamp, % inhibition at […] of […] glutamate currents; format: cell-based; conditions: read-out: % inhibition at 30 μM
Sequence of GluK3 (Q13003 32-919): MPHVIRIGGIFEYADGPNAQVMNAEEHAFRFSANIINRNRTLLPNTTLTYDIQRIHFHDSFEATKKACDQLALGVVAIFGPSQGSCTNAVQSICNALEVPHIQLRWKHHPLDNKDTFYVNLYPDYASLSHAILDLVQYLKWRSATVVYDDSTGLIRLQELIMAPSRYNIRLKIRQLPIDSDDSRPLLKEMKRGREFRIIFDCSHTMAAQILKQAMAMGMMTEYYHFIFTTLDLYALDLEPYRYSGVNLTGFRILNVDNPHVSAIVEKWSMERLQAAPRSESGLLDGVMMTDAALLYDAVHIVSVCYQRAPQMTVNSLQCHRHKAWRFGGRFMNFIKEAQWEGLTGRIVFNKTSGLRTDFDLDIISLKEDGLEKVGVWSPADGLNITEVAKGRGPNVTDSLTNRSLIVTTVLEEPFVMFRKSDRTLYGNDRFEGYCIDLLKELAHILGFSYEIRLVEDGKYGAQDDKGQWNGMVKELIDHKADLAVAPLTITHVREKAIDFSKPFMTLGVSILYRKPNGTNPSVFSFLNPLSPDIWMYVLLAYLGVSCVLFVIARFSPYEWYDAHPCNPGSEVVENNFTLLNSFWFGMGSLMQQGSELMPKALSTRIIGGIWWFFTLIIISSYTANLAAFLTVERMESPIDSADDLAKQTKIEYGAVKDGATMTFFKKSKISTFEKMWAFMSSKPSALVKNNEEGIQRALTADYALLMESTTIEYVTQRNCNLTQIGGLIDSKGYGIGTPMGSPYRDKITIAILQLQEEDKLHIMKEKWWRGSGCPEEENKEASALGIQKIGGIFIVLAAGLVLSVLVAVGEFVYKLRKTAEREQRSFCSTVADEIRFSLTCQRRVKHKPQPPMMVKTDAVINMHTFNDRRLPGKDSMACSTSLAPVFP

Sequence of GluK1 (P39086 31-918): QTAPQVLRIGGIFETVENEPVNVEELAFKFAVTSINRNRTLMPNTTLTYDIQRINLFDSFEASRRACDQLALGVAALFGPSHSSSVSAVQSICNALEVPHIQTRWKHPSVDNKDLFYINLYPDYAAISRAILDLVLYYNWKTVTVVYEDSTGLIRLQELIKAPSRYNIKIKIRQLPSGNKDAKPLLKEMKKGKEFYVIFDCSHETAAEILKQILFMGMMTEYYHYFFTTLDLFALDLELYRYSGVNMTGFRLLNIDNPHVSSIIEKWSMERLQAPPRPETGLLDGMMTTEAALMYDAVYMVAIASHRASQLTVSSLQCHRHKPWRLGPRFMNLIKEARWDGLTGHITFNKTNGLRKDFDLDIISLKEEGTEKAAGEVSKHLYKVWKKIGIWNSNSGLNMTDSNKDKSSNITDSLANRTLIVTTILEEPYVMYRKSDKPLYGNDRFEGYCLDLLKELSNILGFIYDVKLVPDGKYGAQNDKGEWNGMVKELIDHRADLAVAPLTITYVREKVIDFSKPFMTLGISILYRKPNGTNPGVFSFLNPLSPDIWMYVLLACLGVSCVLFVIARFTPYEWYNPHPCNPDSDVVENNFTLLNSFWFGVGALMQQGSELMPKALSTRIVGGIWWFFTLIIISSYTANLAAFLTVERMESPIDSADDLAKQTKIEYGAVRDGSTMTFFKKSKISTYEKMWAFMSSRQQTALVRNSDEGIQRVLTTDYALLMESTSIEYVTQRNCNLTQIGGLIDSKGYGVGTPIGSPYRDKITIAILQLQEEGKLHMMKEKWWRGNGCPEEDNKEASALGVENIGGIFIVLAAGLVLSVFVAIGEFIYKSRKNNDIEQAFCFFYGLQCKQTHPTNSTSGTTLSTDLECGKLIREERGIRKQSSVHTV

Cc1cn(C[C@H](N)C(=O)O)c(=O)n(Cc2cc(-c3ccccc3)sc2C(=O)O)c1=O [ACET, (S)-1-(2-amino-2-carboxyethyl)-3-(2-carboxy-5-phenylthiophene-3-yl-methyl)-5-methylpyrimidine-2,4-dione]
Kb (GluK1): 0.0014 ± 0.0002 µM
inhibition at 30 µM (GluK3): 30 ± 5%

UBP304
Kb (GluK1): 0.11 ± 0.03 µM
